Source: patent US20220022457A1, “Microbicide Ammonium-Imidazolium Oligomers and Their Anti-Fungal Compositions” (AGENCY FOR SCIENCE, TECHNOLOGY AND RESEARCH, priority 2018, published 2022)
In brackets after ≈: the same amount, converted by molar mass.

What was measured:
[1] = system: mouse red blood cells (RBCs); test: Hemolysis study; type: cell-based; conditions: oligomer concentration giving 10% hemolysis, 1 h, 37° C.
Experimental: After 1 h incubation at 37° C., the mixture was centrifuged at 2000 rpm for 5 min. Aliquots (100 μl) of the supernatant were transferred to a 96-well plate. Hemolytic activity was determined as a function of hemoglobin release by measuring absorbance of the supernatant at 576 nm using a microplate reader. A control solution that contained only PBS was used as a reference for 0% hemolysis. Absorbance of red blood cells lysed with 0.5% Triton-X was taken as 100% hemolysis. The oligomer concentration which results in 10% hemolysis is indicated as HC10 in Table 1. The data were expressed as mean and S.D. of four replicates. % Hemolysis=[OD576 nm (polymer)−OD576 nm (PBS)]/[OD576 nm (Triton-X)−OD576 nm (PBS)]×100%

[2] = system: Staphylococcus aureus (ATCC 6538, Gram-positive); test: Minimum inhibitory concentration, microdilution assay; type: cell-based; conditions: 24 h, lowest concentration with no visible growth
Experimental: (§1) Staphylococcus aureus (ATCC 6538, Gram-positive), Escherichia coli (ATCC 8739, Gram-negative), Pseudomonas aeruginosa (ATCC 9027, Gram-negative), and Candida albicans (ATCC 10231, fungus) were used as representative microorganisms to challenge the antimicrobial functions of the oligomers. All bacteria and fungus were frozen at -80° C., and were grown overnight at 37° C. in Mueller Hinton Broth (MHB, BD Singapore) prior to experiments. Fungus was grown overnight at 22° C. in Yeast Mold Broth (YMB, BD Singapore). […] The plates were incubated at 37° C. for 24 h with constant shaking speed at 300 rpm. […] Medium solution containing microbial cells alone were used as control (100% microbial growth). The assay was performed in four replicates and the experiments were repeated at least two times.

[3] = system: Escherichia coli (ATCC 8739, Gram-negative); test: as above; type: cell-based; conditions: 24 h, lowest concentration with no visible growth
Experimental: as §1

[4] = system: Pseudomonas aeruginosa (ATCC 9027, Gram-negative); test: as above; type: cell-based; conditions: 24 h, lowest concentration with no visible growth
Experimental: as §1

Candida albicans = test: Killing efficacy of selected oligomers at 62 μg/ml (FIG. 1); type: cell-based; conditions: for Fungistatic or fungicidal: survivors at 24 h compared with 0 h
[5] = Critical micelle concentration; type: physicochemical
[6] = system: Candida albicans (ATCC 10231, fungus); test: Minimum inhibitory concentration, microdilution assay; type: cell-based; conditions: for MIC50 C.A. (value in brackets): Candida albicans, concentration inhibiting 50% fungal growth
Experimental: as §1, with “The plates were incubated at 37° C. for 24 h with constant shaking speed at 300 rpm.” left out

C. albicans [7] = test: Checkerboard assay of oligomers with triazoles (FIC); type: cell-based; conditions: Candida albicans; for FIC with Fluconazole: calculated from lowest concentration inhibiting at least 50% growth; for Alone MIC50 component A: oligomer alone
Experimental: […]. […] A row and a column in which a serial dilution of each agent was present alone were also prepared for MIC test. Then each solution in the well plate was inoculated with 100 μL of logarithmically grown 10^6 cells/ml C. albicans cells in the 96-well plate. The plate also contained a column with C. albicans only as control (100% cell growth). The cells were incubated at room temperature for 24 h with constant shaking, after which cell growth (i.e. the O.D. at 600 nm) was monitored with a microplate reader (TECAN) Synergy between fluconazole and oligomers was determined by calculating the fractional inhibitory concentration index ([…] was calculated as follows: FIC=(MIColigomer A in combination/MIColigomer A alone)+(MICazole B in combination/MICazole B alone). […] The interaction of selected oligomers with other triazoles such as itraconazole and voriconazole was also investigated using the checkerboard dilution method. For comparison, the interaction of the selected oligomer with a non-triazole antifungal agent […] was also investigated.

C. albicans [8] = type: cell-based, Candida albicans
Staphylococcus aureus = test: Percentage growth after 24 hours with norfloxacin, IDPBX8 and 1:1 mixture (FIG. 2a); type: cell-based; conditions: IDPBX8 combined with norfloxacin, 1:1 weight ratio
C. albicans [9] = test: Growth of C. albicans with IDPBX8, fluconazole or combination (OD600, colony counting; FIG. 2b, 2c)
[10] = Candida albicans ~10^6 CFU/ml, YMB, room temperature, no visible growth
[11] = oligomer in combination with Fluconazole
[12] = oligomer in combination with Itraconazole
[13] = oligomer in combination with Voriconazole
[14] = oligomer with Fluconazole (Table 2)

SMILES	HC10 [1] [µg/mL]	MIC S.A. [2] [µg/mL]	MIC E.C. [3] [µg/mL]	MIC P.A. [4] [µg/mL]	Fungistatic or fungicidal (Candida albicans; 62 μg/ml)	CMC [5] [µg/mL]	MIC C.A. [6, 10] [µg/mL]	MIC50 C.A. (value in brackets) [6]	FIC with Fluconazole (C. albicans [7])	Interaction when applied together with voriconazole (C. albicans [7])	Alone MIC50 component A (C. albicans [7]) [µg/mL]	Combined MIC50 component A (C. albicans [7]; [11]) [µg/mL]	Combined MIC50 component A (C. albicans [7]; [12]) [µg/mL]	Combined MIC50 component A (C. albicans [7]; [13]) [µg/mL]	FIC (C. albicans [7]; [14])	FIC (C. albicans [7]; oligomer with Itraconazole)	FIC (C. albicans [7]; oligomer with Voriconazole)	further results
CCCCCCCC[N+]12CC[N+](C/C=C/C[N+]34CC[N+](CCCCCCCC)(CC3)CC4)(CC1)CC2.[Br-].[Br-].[Br-].[Br-] [DDB8]	>2000	4	8	125	fungistatic	1552	125	(16) μg/ml	0.25									
OC(Cn1cncn1)(Cn1cncn1)c1ccc(F)cc1F [Fluconazole, fluconazole, reference compound]					fungistatic rather than fungicidal													MIC increase by the 31th passage (C. albicans [8]; grown at 1/4 MIC, 31th passage): 8 times of the original MIC; Number of surviving C. albicans after 24 h treatment compared with control (Candida albicans; 62 μg/ml, 24 h): significantly less than the untreated control; MIC ([6]; ATCC10231, Candida albicans ~10^6 CFU/ml, YMB, room temperature, no visible growth): 2 to 4 µg/mL (≈ 6.53 to 13.1 µM); MIC50 (C. albicans [7]; triazole alone, read-out: Alone MIC50 component B): 4 µg/mL; Alone MIC50 component B (C. albicans [7]; triazole alone): 2 µg/mL; Combined MIC50 component B (C. albicans [7]; triazole in combination with IDPBX8): 0.5 µg/mL; Combined MIC50 component B (C. albicans [7]; triazole in combination with IDPPX8): 0.25 µg/mL; Combined MIC50 component B (C. albicans [7]; triazole in combination with IIDPPBX8): 2 µg/mL
CCCCCCCC[n+]1ccn(Cc2ccc(C[N+]34CC[N+](C/C=C/C[N+]56CC[N+](Cc7ccc(Cn8cc[n+](CCCCCCCC)c8)cc7)(CC5)CC6)(CC3)CC4)cc2)c1.[Br-].[Br-].[Br-].[Br-].[Br-].[Br-] [IDPBX8]	>2000	16	31	62		1456	8 to 31	(2-8) μg/ml	0.38	Synergy	8	1	1	2	0.38	0.62	0.31	Resistance developed by C. albicans (C. albicans [8]; 36 consecutive days of treatment): no significant resistance was developed; MICs over the entire 36 passages (C. albicans [8]; grown at 1/4 MIC): relatively stable; Efficacy of combination versus single agents (Staphylococcus aureus): did not show improved efficacy; Killing (Candida albicans; 62 μg/ml, after 24 h treatment): 99%; Killing (Candida albicans; 62 μg/ml, after 48 h): 99.99%; Killing kinetics (Candida albicans; IDPBX8 compared with IIDPPBX8): kills faster; Total concentration of the combination at which killing effect was observed (C. albicans [9]): 2 µg/mL; Activity of combination versus single agents (C. albicans [9]; IDPBX8 combined with fluconazole, 1:1 weight ratio, 24 h): higher activity than each compound/medicine used alone
CCCCCCCC[n+]1ccn(Cc2ccc(C[N+]34CC[N+](Cc5ccc(C[N+]67CC[N+](Cc8ccc(Cn9cc[n+](CCCCCCCC)c9)cc8)(CC6)CC7)cc5)(CC3)CC4)cc2)c1.[Br-].[Br-].[Br-].[Br-].[Br-].[Br-] [IDPPX8]	>2000	8	62	500	fungistatic	1552	62	(8-31) μg/ml	0.25	Synergy	16	2	4	4	0.19	0.50	0.30	
